# Measurements from patent US9790169B2, “IDO inhibitors” (BRISTOL-MYERS SQUIBB COMPANY, priority 2015, dated 2017).
# Target: human IDO1 (Homo sapiens, UniProt P14902)
# Assay: Assessment of human IDO-1 inhibitory activity in HEK cells (human IDO1/HEK293 cells, kynurenine read-out with Ehrlich reagent, absorbance 490 nm)
# Type: cell-based
# Design: expressed in transfected cells
# Conditions: HEK Human IDO-1 cellular assay
# How it was run: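 HEK293 cells stably expressing human IDO1 were seeded at 10,000 per well in phenol red-free RPMI with 10% FBS, treated with compound for 20 h at 37 °C. Kynurenine was measured after TCA (0.2% final) and 30 min at 50 °C, using Ehrlich reagent, A490. IC50 normalised to DMSO (0%) and 500 nM reference standard (100%).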
# Sequence of human IDO1 (P14902 whole entry): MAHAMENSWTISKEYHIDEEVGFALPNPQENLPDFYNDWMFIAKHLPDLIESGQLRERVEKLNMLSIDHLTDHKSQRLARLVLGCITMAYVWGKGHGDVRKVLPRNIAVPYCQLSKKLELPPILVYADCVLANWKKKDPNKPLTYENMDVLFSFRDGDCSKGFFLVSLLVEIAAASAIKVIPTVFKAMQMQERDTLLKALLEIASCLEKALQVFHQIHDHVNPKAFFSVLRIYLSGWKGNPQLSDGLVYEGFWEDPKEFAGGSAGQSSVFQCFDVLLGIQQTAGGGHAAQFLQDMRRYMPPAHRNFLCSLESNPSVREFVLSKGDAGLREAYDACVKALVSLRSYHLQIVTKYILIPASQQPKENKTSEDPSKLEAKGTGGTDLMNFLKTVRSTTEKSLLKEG
row,Structure (SMILES),IC50
1,"CCC(CC(=O)O)c1ccc(N(CC)C2CCCOC2)c(NC(=O)Nc2ccc(C)cc2)c1 (single isomer, unassigned) [Example 73 D2, 3-(4-(Ethyl(tetrahydro-2H-pyran-3-yl)amino)-3-(3-(p-tolyl)ureido)phenyl)pentanoic acid]",< 0.005 µM
2,"CC[C@H](CC(=O)O)c1ccc(N(CC)C2CCOCC2)c(NC(=O)Nc2ccc(OC)cc2)c1 (single isomer, unassigned) [Example 529]",< 0.05 µM
3,"CCOc1ccc(NC(=O)Nc2cc(C(COC)CC(=O)O)ccc2N(CC(C)C)C2CCOCC2)c(F)c1 (single isomer, unassigned) [Example 1215, 3-(3-(3-(4-Ethoxy-2-fluorophenyl)ureido)-4-(isobutyl(tetrahydro-2H-pyran-4-yl)amino)phenyl)-4-methoxybutanoic acid]",> 0.05 µM
4,"CCOc1ccc(Nc2cc(C(CC)CC(=O)O)cc(F)c2N(CC(C)C)CC(C)C)cc1 (single isomer, unassigned) [Example 97, 3-(4-(diisobutylamino)-3-((4-ethoxyphenyl)amino)-5-fluorophenyl)pentanoic acid]",< 0.05 µM
5,"CCC(CC(=O)O)c1cc(NC(=O)Nc2ccc(C)cc2)c(N(CC(C)C)C2CCCCC2)cc1F (single isomer, unassigned) [Example 1106, 3-(4-(Cyclohexyl(isobutyl)amino)-2-fluoro-5-(3-(p-tolyl)ureido)phenyl)pentanoic acid]",< 0.005 µM
6,"COCC(CC(=O)O)c1cc(F)c(N(CC(C)C)CC(C)C)c(NC(=O)Cc2ccc(C)cc2)c1 (single isomer, unassigned) [Example 1190, 3-(4-(Diisobutylamino)-3-fluoro-5-(2-(p-tolyl)acetamido)phenyl)-4-methoxybutanoic acid]",< 0.005 µM
7,"CCC(CC(=O)O)c1ccc(N2CCC[C@H]2C(C)(C)F)c(NC(=O)Nc2ccc(C)cc2)c1 (single isomer, unassigned) [Example 792]",> 0.05 µM
8,CCC(CC(=O)O)c1ccc(N(CC2CC2)C2CCOCC2)c(NC(=O)Nc2ccc(C)cc2)c1 (stereo not shown) [Example 698],< 0.05 µM
9,"COCC(CC(=O)O)c1cc(F)c(N(CC(C)C)C2CCCCC2)c(NC(=O)Nc2ccc(OC(F)(F)F)cc2)c1 (single isomer, unassigned) [Example 1163, 3-(4-(cyclohexyl(isobutyl)amino)-3-fluoro-5-(3-(4-(trifluoromethoxy)phenyl)ureido)phenyl)-4-methoxybutanoic acid]",< 0.005 µM
10,"CC[C@@H](CC(=O)O)c1ccc(N(CC)C2CCOCC2)c(Nc2ccc(Cl)cc2)c1 (single isomer, unassigned) [Example 456]",< 0.005 µM
11,"COCC(CC(=O)O)c1cc(F)c(N(CC(C)C)C2CCCCC2)c(NC(=O)Cc2ccc(Cl)cc2F)c1 (single isomer, unassigned) [Example 1172, 3-(3-(2-(4-chloro-2-fluorophenyl)acetamido)-4-(cyclohexyl(isobutyl)amino)-5-fluorophenyl)-4-methoxybutanoic acid]",< 0.05 µM
12,"CCC(CC(=O)O)c1ccc(N(CC(C)C)CC(C)(C)O)c(Nc2ccc(Cl)cc2)c1 (racemic) [Example 453, 3-(3-((4-chlorophenyl)amino)-4-((2-hydroxy-2-methyl-propyl)(isobutyl)amino)phenyl) pentanoic acid]",< 0.005 µM
13,"CCCN(c1ccc(C(CC)CC(=O)O)cc1NC(=O)Nc1cnc(C)nc1)C1CCOCC1 (racemic) [Example 610, 3-(3-(3-(2-methylpyrimidin-5-yl)ureido)-4-(propyl(tetrahydro-2H-pyran-4-yl)amino)phenyl)pentanoic acid]",> 0.05 µM
14,"CCC(CC(=O)O)c1ccc(N2C[C@@H](C)O[C@@H](C)C2)c(Nc2ccc(C#N)cc2)c1 (single isomer, unassigned) [Example 764]",< 0.05 µM
15,"CC[C@@H](CC(=O)O)c1ccc(N(CC)C2CCCCC2)c(Nc2ccc(OC(F)F)cc2)c1 (single isomer, unassigned) [Example 284]",< 0.005 µM
16,"COCC(CC(=O)O)c1cc(F)c(N(CC(C)C)CC(C)C)c(NC(=O)Nc2ccc(OC)cc2F)c1 (single isomer, unassigned) [Example 1176, 3-(4-(Diisobutylamino)-3-fluoro-5-(3-(2-fluoro-4-methoxyphenyl)ureido)phenyl)-4-methoxybutanoic acid]",< 0.005 µM
17,"CC[C@@H](CC(=O)O)c1ccc(N2CCOC[C@@H]2C(C)C)c(Nc2ccc(C#N)cc2)c1 (single isomer, unassigned) [Example 83]",< 0.05 µM
18,"CC(C)CN(c1ccc(C(COCC2CC2(F)F)CC(=O)O)cc1NC(=O)Nc1ccc(Cl)cc1F)C1CCCCC1 (racemic) [Example 1002, (+/−)-3-(3-(3-(4-Chloro-2-fluorophenyl)ureido)-4-(cyclohexyl(isobutyl)amino)phenyl)-4-((2,2-difluorocyclopropyl)methoxy)butanoic acid]",< 0.05 µM
19,"CCN(c1ccc(C(C)CC(=O)O)cc1NC(=O)Nc1ccc(C)cc1)C1CCOCC1 (single isomer, unassigned) [Example 641, 3-(4-(ethyl(tetrahydro-2H-pyran-4-yl)amino)-3-(3-(p-tolyl)ureido)phenyl)butanoic acid]",> 0.05 µM

row,Structure (SMILES),IC50
1,"CCC(CC(=O)O)c1ccc(N(CC)C2CCCOC2)c(Nc2cnc(OC)nc2)c1 (single isomer, unassigned) [Example 71, 3-(4-(ethyl(tetrahydro-2H-pyran-3-yl)amino)-3-((2-methoxypyrimidin-5-yl)amino)phenyl)pentanoic acid]",< 0.05 µM
2,"CC[C@@H](CC(=O)O)c1ccc(N(CC(C)(C)O)C2CCOCC2)c(NC(=O)Nc2ccc(C)cc2)c1 (single isomer, unassigned) [Example 207]",> 0.05 µM
3,"CC(C)CN(c1ccc(C(CC(=O)O)C2CC2)cc1NC(=O)Nc1ccc(Cl)cc1F)C1CCOCC1 (racemic) [Example 1198, (+/−)-3-(3-(3-(4-Chloro-2-fluorophenyl)ureido)-4-(isobutyl(tetrahydro-2H-pyran-4-yl)amino)phenyl)-3-cyclopropylpropanoic acid]",< 0.005 µM
4,"CCC(CC(=O)O)c1ccc(N(CC2CC2)C2CCOCC2)c(Nc2ccc(C#N)cc2)c1 (single isomer, unassigned) [Example 706, 3-(3-((4-cyanophenyl)amino)-4-((cyclopropylmethyl) (tetrahydro-2H-pyran-4-yl)amino)phenyl)pentanoic acid]",< 0.005 µM
5,"CC[C@H](CC(=O)O)c1ccc(N(CC(C)(C)O)C2CCOCC2)c(NC(=O)Nc2ccc(C)cc2)c1 (single isomer, unassigned) [Example 208]",> 0.05 µM
6,"CCN(c1ccc(C(C)CC(=O)O)cc1Nc1ccc(F)cc1)C1CCOCC1 (single isomer, unassigned) [Example 615, 3-(4-(ethyl(tetrahydro-2H-pyran-4-yl)amino)-3-((4-fluorophenyl)amino)phenyl) butanoic acid]",< 0.005 µM
7,"CCCN(CC1CC1)c1ccc(C(CC)CC(=O)O)cc1Nc1ccc2c(c1)OC(F)(F)O2 (single isomer, unassigned) [Example 659, 3-(4-((cyclopropylmethyl) (propyl)amino)-3-((2,2-difluorobenzo[d][1,3]dioxol-5-yl)amino)phenyl)pentanoic acid]",< 0.05 µM
8,"CCC(CC(=O)O)c1ccc(N2CCC[C@H]2C(C)(C)O)c(Nc2ccc3c(c2)OC(F)(F)O3)c1 (single isomer, unassigned) [Example 821]",< 0.05 µM
9,"CC[C@@H](CC(=O)O)c1ccc(N(CC(C)C)C2CCS(=O)(=O)CC2)c(Nc2ccc3c(c2)OC(F)(F)O3)c1 (single isomer, unassigned) [Example 220]",< 0.005 µM
10,"CCOc1ccc(NC(=O)Nc2cc(C(CC)CC(=O)O)c(F)cc2N(CC(C)C)C2CCCCC2)c(F)c1 (single isomer, unassigned) [Example 1117, 3-(4-(Cyclohexyl(isobutyl)amino)-5-(3-(4-ethoxy-2-fluorophenyl)ureido)-2-fluorophenyl)pentanoic acid]",< 0.005 µM
11,"Cc1ccc(NC(=O)Nc2cc(C(CC(=O)O)C3CC3)ccc2N(CC(C)C)C2CCOCC2)cc1 (racemic) [Example 1202, (+/−)-3-Cyclopropyl-3-(4-(isobutyl(tetrahydro-2H-pyran-4-yl)amino)-3-(3-(p-tolyl)ureido)phenyl)propanoic acid]",< 0.005 µM
12,"CCN(c1ccc([C@@H](COC)CC(=O)O)cc1NC(=O)Nc1cnc(C)nc1)C1CCOCC1 (single isomer, unassigned) [Example 427]",> 0.05 µM
13,"COc1ncc(Nc2cc(C(C)CC(=O)O)ccc2N2C[C@@H](C)O[C@@H](C)C2)cn1 (single isomer, unassigned) [Example 741]",> 0.05 µM
14,"CCN(c1ccc([C@@H](COC)CC(=O)O)cc1NC(=O)Nc1ccc(OC(F)F)cc1)C1CCOCC1 (single isomer, unassigned) [Example 425]",> 0.05 µM
15,"CCC(CC(=O)O)c1cc(NC(=O)Nc2ccc3c(c2)OCO3)c(N(CC(C)C)CC(C)C)cc1F (single isomer, unassigned) [Example 1135, 3-(5-(3-(Benzo[d][1,3]dioxol-5-yl)ureido)-4-(diisobutylamino)-2-fluorophenyl)pentanoic acid]",< 0.005 µM
16,"CCOc1ccc(NC(=O)Nc2cc(C(CC)CC(=O)O)c(F)cc2N(CC(C)C)C2CCCCC2)cc1 (racemic) [Example 952, (+/−)-3-(4-(Cyclohexyl(isobutyl)amino)-5-(3-(4-ethoxyphenyl)ureido)-2-fluorophenyl)pentanoic acid]",< 0.005 µM
17,"CCC(CC(=O)O)c1ccc(N2CCC[C@@H]2COC)c(NC(=O)Cc2ccc(C)cc2)c1 (single isomer, unassigned) [Example 1144]",> 0.05 µM
18,"CCOc1ccc(CC(=O)Nc2cc(C(COC)CC(=O)O)cc(F)c2N(CC(C)C)CC(C)C)cc1 (single isomer, unassigned) [Example 1181, 3-(4-(Diisobutylamino)-3-(2-(4-ethoxyphenyl)acetamido)-5-fluorophenyl)-4-methoxybutanoic acid]",< 0.05 µM
